PMC5218480 (PLoS ONE, 2017)

System: MV-4-11 cells
Assay: Gene expression microarray analysis (Affymetrix PrimeView) and GSEA
Assay type: cell-based, human
Design: RFU PODN (11730768_x_at) / Fold change /veh PODN (11730768_x_at) / RFU LINC00158 (11744669_a_at) / Fold change /veh LINC00158 (11744669_a_at) / RFU DUSP10 (11751237_a_at) / Fold change /veh DUSP10 (11751237_a_at) / RFU ID3 (11757404_x_at) / Fold change /veh ID3 (11757404_x_at) / RFU PLEKHG5 (11737974_s_at) / Fold change /veh PLEKHG5 (11737974_s_at) / RFU LRRC4B (11730491_at) / Fold change /veh LRRC4B (11730491_at) / RFU GIMAP4 (11747438_a_at) / Fold change /veh GIMAP4 (11747438_a_at) / RFU KRT8 (11758183_x_at) / Fold change /veh KRT8 (11758183_x_at) / RFU CNN1 (11734310_a_at) / Fold change /veh CNN1 (11734310_a_at) / RFU VPS37D (11726825_at) / Fold change /veh VPS37D (11726825_at) / RFU C10orf10 (11716522_x_at) / Fold change /veh C10orf10 (11716522_x_at) / RFU KIR2DL2 /// KIR2DL4 /// KIR2DL5A /// KIR2DL5B /// KIR2DS1 /// KIR2DS2 /// KIR2DS3 /// KIR2DS4 /// KIR3DL3 /// KIR3DL3 /// KIR3DS1 (11738374_at) / Fold change /veh KIR2DL2 /// KIR2DL4 /// KIR2DL5A /// KIR2DL5B /// KIR2DS1 /// KIR2DS2 /// KIR2DS3 /// KIR2DS4 /// KIR3DL3 /// KIR3DL3 /// KIR3DS1 (11738374_at) / RFU C1QL1 (11718748_at) / Fold change /veh C1QL1 (11718748_at) / RFU TMPRSS4 (11747572_a_at) / Fold change /veh TMPRSS4 (11747572_a_at) / RFU HAMP (11756126_x_at) / Fold change /veh HAMP (11756126_x_at) / RFU RNFT2 (11725882_a_at) / Fold change /veh RNFT2 (11725882_a_at) / RFU NR4A2 (11747474_a_at) / Fold change /veh NR4A2 (11747474_a_at) / RFU ABCC12 (11746883_a_at) / Fold change /veh ABCC12 (11746883_a_at) / RFU TMEM136 (11760407_x_at) / Fold change /veh TMEM136 (11760407_x_at) / RFU CLDN22 /// WWC2 (11732394_at) / Fold change /veh CLDN22 /// WWC2 (11732394_at) / RFU HLA-DPB1 (11760878_x_at) / Fold change /veh HLA-DPB1 (11760878_x_at) / RFU SPINT1 (11716480_a_at) / Fold change /veh SPINT1 (11716480_a_at) / RFU GAP43 (11754022_s_at) / Fold change /veh GAP43 (11754022_s_at) / RFU A4GNT (11735810_at) / Fold change /veh A4GNT (11735810_at) / RFU PRB3 (11715151_x_at) / Fold change /veh PRB3 (11715151_x_at) / RFU TUBB4B (11761932_at) / Fold change /veh TUBB4B (11761932_at) / RFU CAPN14 (11732068_a_at) / Fold change /veh CAPN14 (11732068_a_at) / RFU TMCC2 (11721928_a_at) / Fold change /veh TMCC2 (11721928_a_at) / RFU IRGQ (11745062_a_at) / Fold change /veh IRGQ (11745062_a_at) / RFU FAM174B (11720279_a_at) / Fold change /veh FAM174B (11720279_a_at) / RFU TMPRSS4 (11748680_a_at) / Fold change /veh TMPRSS4 (11748680_a_at) / RFU FAM212B (11763350_a_at) / Fold change /veh FAM212B (11763350_a_at) / RFU PLEKHG5 (11743358_a_at) / Fold change /veh PLEKHG5 (11743358_a_at) / RFU ZSCAN30 (11745921_a_at) / Fold change /veh ZSCAN30 (11745921_a_at) / RFU CMKLR1 (11741424_a_at) / Fold change /veh CMKLR1 (11741424_a_at) / RFU LOC101060620 /// MAPK8IP1 (11723275_at) / Fold change /veh LOC101060620 /// MAPK8IP1 (11723275_at) / RFU SPTSSB (11747773_x_at) / Fold change /veh SPTSSB (11747773_x_at) / RFU PRSS12 (11739890_at) / Fold change /veh PRSS12 (11739890_at) / RFU BIN1 (11741810_x_at) / Fold change /veh BIN1 (11741810_x_at) / RFU WNT11 (11732464_a_at) / Fold change /veh WNT11 (11732464_a_at) / RFU C10orf10 (11716521_a_at) / Fold change /veh C10orf10 (11716521_a_at) / RFU C5orf56 (11738089_at) / Fold change /veh C5orf56 (11738089_at) / RFU CYB561 (11721691_x_at) / Fold change /veh CYB561 (11721691_x_at) / RFU ANKRD19P (11752326_a_at) / Fold change /veh ANKRD19P (11752326_a_at) / RFU OR2T12 /// OR2T33 /// OR2T8 (11738714_s_at) / Fold change /veh OR2T12 /// OR2T33 /// OR2T8 (11738714_s_at) / RFU VCAN (11748164_a_at) / Fold change /veh VCAN (11748164_a_at) / RFU JSRP1 (11732532_at) / Fold change /veh JSRP1 (11732532_at) / RFU KRTAP10-11 (11738290_x_at) / Fold change /veh KRTAP10-11 (11738290_x_at) / RFU MYO3A (11730013_a_at) / Fold change /veh MYO3A (11730013_a_at) / RFU EBF3 (11725865_a_at) / Fold change /veh EBF3 (11725865_a_at) / RFU CAMK2N1 (11719241_x_at) / Fold change /veh CAMK2N1 (11719241_x_at) / RFU C5orf56 (11738088_a_at) / Fold change /veh C5orf56 (11738088_a_at) / RFU OLFML3 (11715873_a_at) / Fold change /veh OLFML3 (11715873_a_at) / RFU LOC100653217 /// NTM (11731650_a_at) / Fold change /veh LOC100653217 /// NTM (11731650_a_at) / RFU MAPK11 (11762145_a_at) / Fold change /veh MAPK11 (11762145_a_at) / RFU FIZ1 (11724087_x_at) / Fold change /veh FIZ1 (11724087_x_at) / RFU OASL (11726364_x_at) / Fold change /veh OASL (11726364_x_at) / RFU SOX15 (11748057_x_at) / Fold change /veh SOX15 (11748057_x_at) / RFU CD79A (11719716_a_at) / Fold change /veh CD79A (11719716_a_at) / RFU HIST1H1D (11736915_at) / Fold change /veh HIST1H1D (11736915_at) / RFU CASKIN2 (11723855_a_at) / Fold change /veh CASKIN2 (11723855_a_at) / RFU LOC730098 (11760151_x_at) / Fold change /veh LOC730098 (11760151_x_at) / RFU OR4N2 (11742367_at) / Fold change /veh OR4N2 (11742367_at) / RFU PRRT2 (11749266_a_at) / Fold change /veh PRRT2 (11749266_a_at) / RFU SNX32 (11753110_a_at) / Fold change /veh SNX32 (11753110_a_at) / RFU CDHR5 (11726645_a_at) / Fold change /veh CDHR5 (11726645_a_at) / RFU RCAN1 (11760418_a_at) / Fold change /veh RCAN1 (11760418_a_at) / RFU FAM167A (11723789_a_at) / Fold change /veh FAM167A (11723789_a_at) / RFU FAM26E (11764081_at) / Fold change /veh FAM26E (11764081_at) / RFU ISYNA1 (11749810_s_at) / Fold change /veh ISYNA1 (11749810_s_at) / RFU ACY1 (11761880_at) / Fold change /veh ACY1 (11761880_at) / RFU 11764098_at / Fold change /veh 11764098_at / RFU SAMD14 (11745864_x_at) / Fold change /veh SAMD14 (11745864_x_at) / RFU NPB (11741838_a_at) / Fold change /veh NPB (11741838_a_at) / RFU TMPRSS6 (11731388_a_at) / Fold change /veh TMPRSS6 (11731388_a_at) / RFU KRTAP10-2 (11738614_at) / Fold change /veh KRTAP10-2 (11738614_at) / RFU ARHGAP8 /// PRR5-ARHGAP8 (11727945_x_at) / Fold change /veh ARHGAP8 /// PRR5-ARHGAP8 (11727945_x_at) / RFU KRTAP5-7 /// NADSYN1 (11734609_at) / Fold change /veh KRTAP5-7 /// NADSYN1 (11734609_at) / RFU RASL12 (11751679_a_at) / Fold change /veh RASL12 (11751679_a_at) / RFU CDKN2B (11736163_a_at) / Fold change /veh CDKN2B (11736163_a_at) / RFU PRF1 (11729649_at) / Fold change /veh PRF1 (11729649_at) / RFU, ZNF638 /// ZNF638-IT1 / Fold change vs veh, ZNF638 /// ZNF638-IT1 / RFU, PANK3 / Fold change vs veh, PANK3 / RFU, SH3YL1 / Fold change vs veh, SH3YL1 / RFU, ZEB2 / Fold change vs veh, ZEB2 / RFU, NRIP1 / Fold change vs veh, NRIP1 / RFU, PTTG1IP / Fold change vs veh, PTTG1IP / RFU, CAPN2 / Fold change vs veh, CAPN2 / RFU, MED14 / Fold change vs veh, MED14 / RFU, SNORA58 / Fold change vs veh, SNORA58 / RFU, C1orf63 / Fold change vs veh, C1orf63 / RFU, LRRFIP1 / Fold change vs veh, LRRFIP1 / RFU, NDUFAF7 / Fold change vs veh, NDUFAF7 / RFU, SLC12A2 / Fold change vs veh, SLC12A2 / RFU, IBTK / Fold change vs veh, IBTK / RFU, ESF1 / Fold change vs veh, ESF1 / Fold change vs veh, TMEM50B / RFU, TAOK1 / Fold change vs veh, TAOK1 / RFU, ACBD3 / Fold change vs veh, ACBD3 / RFU, TMA16 / Fold change vs veh, TMA16 / RFU, RWDD3 / Fold change vs veh, RWDD3 / RFU, BCAT1 / Fold change vs veh, BCAT1 / RFU, EDEM3 / Fold change vs veh, EDEM3 / RFU, TMEM33 / Fold change vs veh, TMEM33 / RFU, WDR75 / Fold change vs veh, WDR75 / RFU, AHCTF1 / Fold change vs veh, AHCTF1 / RFU, TFRC / Fold change vs veh, TFRC / RFU, ZDHHC17 / Fold change vs veh, ZDHHC17 / RFU, NOM1 / Fold change vs veh, NOM1 / RFU, ARL8B / Fold change vs veh, ARL8B / RFU, ZBTB11 / Fold change vs veh, ZBTB11 / RFU, TAMM41 / Fold change vs veh, TAMM41 / RFU, KIAA1704 /// LOC100996395 / Fold change vs veh, KIAA1704 /// LOC100996395 / RFU, ING1 / Fold change vs veh, ING1 / RFU, TRMT61B / Fold change vs veh, TRMT61B / RFU, FUBP3 / Fold change vs veh, FUBP3 / RFU, TP53 / Fold change vs veh, TP53 / RFU, TNKS2 / Fold change vs veh, TNKS2 / RFU, ZFP14 / Fold change vs veh, ZFP14 / RFU, ACTR2 / Fold change vs veh, ACTR2 / RFU, PPP3R1 / Fold change vs veh, PPP3R1 / RFU, PIK3R1 / Fold change vs veh, PIK3R1 / RFU, HNRNPA1 / Fold change vs veh, HNRNPA1 / RFU, RNF170 / Fold change vs veh, RNF170 / RFU, ZNF28 / Fold change vs veh, ZNF28 / RFU, RNGTT / Fold change vs veh, RNGTT / RFU, OGT / Fold change vs veh, OGT / RFU, BRD1 / Fold change vs veh, BRD1 / RFU, MARS / Fold change vs veh, MARS / RFU, ZNF655 / Fold change vs veh, ZNF655 / RFU, FAHD1 / Fold change vs veh, FAHD1 / RFU, BDP1 / Fold change vs veh, BDP1 / RFU, LRRCC1 / Fold change vs veh, LRRCC1 / RFU, ARID1A / Fold change vs veh, ARID1A / RFU, ZNF146 / Fold change vs veh, ZNF146 / RFU, ZNF330 / Fold change vs veh, ZNF330 / RFU, GPN3 / Fold change vs veh, GPN3 / RFU, C9orf123 / Fold change vs veh, C9orf123 / RFU, N4BP2L2 / Fold change vs veh, N4BP2L2 / RFU, ARFIP1 / Fold change vs veh, ARFIP1 / RFU, FAM179B / Fold change vs veh, FAM179B / RFU, BCL10 / Fold change vs veh, BCL10 / RFU, UHRF1BP1L / Fold change vs veh, UHRF1BP1L / RFU, BET1 / Fold change vs veh, BET1 / RFU, CNOT2 / Fold change vs veh, CNOT2 / RFU, ZNF268 / Fold change vs veh, ZNF268 / Fold change vs veh, ZNF507 / RFU, DGCR2 / Fold change vs veh, DGCR2 / RFU, WDSUB1 / Fold change vs veh, WDSUB1 / Fold change vs veh, HSP90B1 /// MIR3652 / RFU, ADSS / Fold change vs veh, ADSS / RFU, GK / Fold change vs veh, GK / RFU, ZNF148 / Fold change vs veh, ZNF148 / RFU, TAF9 / Fold change vs veh, TAF9 / RFU, SLC1A5 / Fold change vs veh, SLC1A5 / RFU, SLMO2 / Fold change vs veh, SLMO2 / RFU, ABCC4 / Fold change vs veh, ABCC4 / RFU, LOC101060439 /// RAP1B / Fold change vs veh, LOC101060439 /// RAP1B / RFU, RFX7 / Fold change vs veh, RFX7 / RFU, GTPBP10 / Fold change vs veh, GTPBP10 / RFU, CNEP1R1 / Fold change vs veh, CNEP1R1 / RFU, BIVM-ERCC5 /// ERCC5 / Fold change vs veh, BIVM-ERCC5 /// ERCC5 / RFU, ILF3 / Fold change vs veh, ILF3 / RFU 11762660_at / Fold change /veh 11762660_at / RFU VCAN (11757783_s_at) / Fold change /veh VCAN (11757783_s_at) / RFU DDX43 (11728927_at) / Fold change /veh DDX43 (11728927_at) / RFU KRT8 (11758188_x_at) / Fold change /veh KRT8 (11758188_x_at) / RFU NKD1 (11759106_at) / Fold change /veh NKD1 (11759106_at) / RFU SRD5A1 (11742802_a_at) / Fold change /veh SRD5A1 (11742802_a_at) / RFU TPSAB1 /// TPSB2 (11721975_s_at) / Fold change /veh TPSAB1 /// TPSB2 (11721975_s_at) / RFU GSTM3 (11746129_a_at) / Fold change /veh GSTM3 (11746129_a_at) / RFU IL23R (11737362_x_at) / Fold change /veh IL23R (11737362_x_at) / RFU TMEM51 (11727254_a_at) / Fold change /veh TMEM51 (11727254_a_at) / RFU PIWIL2 (11732686_x_at) / Fold change /veh PIWIL2 (11732686_x_at) / RFU ORM1 (11744905_x_at) / Fold change /veh ORM1 (11744905_x_at) / RFU CCDC152 (11743942_at) / Fold change /veh CCDC152 (11743942_at) / RFU ECM1 (11717891_a_at) / Fold change /veh ECM1 (11717891_a_at) / RFU IL23R (11748794_a_at) / Fold change /veh IL23R (11748794_a_at) / RFU TNFAIP8L3 (11732012_x_at) / Fold change /veh TNFAIP8L3 (11732012_x_at) / RFU MBOAT4 (11741988_at) / Fold change /veh MBOAT4 (11741988_at) / RFU 11764193_at / Fold change /veh 11764193_at / RFU TMEM53 (11763286_at) / Fold change /veh TMEM53 (11763286_at) / RFU MAGEB2 (11727129_at) / Fold change /veh MAGEB2 (11727129_at) / RFU TMEM200A (11744735_a_at) / Fold change /veh TMEM200A (11744735_a_at) / RFU CCDC152 (11751479_a_at) / Fold change /veh CCDC152 (11751479_a_at) / RFU FAM211A (11726209_a_at) / Fold change /veh FAM211A (11726209_a_at) / RFU RGS16 (11746705_a_at) / Fold change /veh RGS16 (11746705_a_at) / RFU VCAN (11755009_s_at) / Fold change /veh VCAN (11755009_s_at) / RFU RHOB (11743442_s_at) / Fold change /veh RHOB (11743442_s_at) / RFU RGS16 (11720943_a_at) / Fold change /veh RGS16 (11720943_a_at) / RFU RGS16 (11720944_at) / Fold change /veh RGS16 (11720944_at) / RFU, VPS4B / Fold change vs veh, VPS4B / RFU, CREB1 / Fold change vs veh, CREB1 / RFU, DNAJC13 / Fold change vs veh, DNAJC13 / RFU, GNAQ / Fold change vs veh, GNAQ / RFU, CDK5R1 / Fold change vs veh, CDK5R1 / RFU, ZRANB3 / Fold change vs veh, ZRANB3 / RFU, CUL4A / Fold change vs veh, CUL4A / RFU, CCNY / Fold change vs veh, CCNY / RFU, UFL1 / Fold change vs veh, UFL1 / RFU, COG3 / Fold change vs veh, COG3 / RFU, DIAPH2 / Fold change vs veh, DIAPH2 / RFU, SKA2 / Fold change vs veh, SKA2 / RFU, AFF3 / Fold change vs veh, AFF3 / RFU, LMF1 / Fold change vs veh, LMF1 / RFU, IPO11 / Fold change vs veh, IPO11 / RFU, DFFB / Fold change vs veh, DFFB / RFU, FOXP1 / Fold change vs veh, FOXP1 / RFU, CARD8 / Fold change vs veh, CARD8 / RFU, STRN3 / Fold change vs veh, STRN3 / RFU, ADK / Fold change vs veh, ADK / RFU, RASSF2 / Fold change vs veh, RASSF2 / RFU, WIPF1 / Fold change vs veh, WIPF1 / RFU, LARP1B / Fold change vs veh, LARP1B / RFU, RASA1 / Fold change vs veh, RASA1 / RFU, RB1 / Fold change vs veh, RB1 / RFU, PPFIA1 / Fold change vs veh, PPFIA1 / RFU, MAT2A / Fold change vs veh, MAT2A / RFU, CCT5 / Fold change vs veh, CCT5 / RFU, WDR92 / Fold change vs veh, WDR92 / RFU, CUX1 / Fold change vs veh, CUX1 / RFU, TTC7A / Fold change vs veh, TTC7A / RFU, TMEM135 / Fold change vs veh, TMEM135 / RFU, DEPTOR / Fold change vs veh, DEPTOR / RFU, CPM / Fold change vs veh, CPM / RFU, DNAJB6 / Fold change vs veh, DNAJB6 / RFU, CACNA2D3 / Fold change vs veh, CACNA2D3 / RFU, DTX4 / Fold change vs veh, DTX4 / RFU, TFCP2 / Fold change vs veh, TFCP2 / RFU, GMCL1 /// GMCL1P1 / Fold change vs veh, GMCL1 /// GMCL1P1 / RFU, AEBP2 / Fold change vs veh, AEBP2 / RFU, SNHG1 /// SNORD22 /// SNORD25 /// SNORD26 /// SNORD27 /// SNORD28 /// SNORD29 /// SNORD31 / Fold change vs veh, SNHG1 /// SNORD22 /// SNORD25 /// SNORD26 /// SNORD27 /// SNORD28 /// SNORD29 /// SNORD31 / Fold change (Aza/veh), C12orf56 (ProbeSet 11735607_a_at) / Fold change (ACY-1035/veh), C12orf56 (ProbeSet 11735607_a_at) / Fold change (Aza/veh), FGFR1OP (ProbeSet 11751329_s_at) / Fold change (ACY-1035/veh), FGFR1OP (ProbeSet 11751329_s_at) / Fold change (Aza/veh), VPS36 (ProbeSet 11739960_a_at) / Fold change (ACY-1035/veh), VPS36 (ProbeSet 11739960_a_at) / RFU SYPL1 (11715823_x_at) / Fold change /veh SYPL1 (11715823_x_at) / RFU IGFBP7 (11715501_s_at) / Fold change /veh IGFBP7 (11715501_s_at) / RFU REEP3 (11722064_at) / Fold change /veh REEP3 (11722064_at) / RFU IGLL1 (11728026_x_at) / Fold change /veh IGLL1 (11728026_x_at): dose or concentration left out as unconfirmed
Details: ProbeSet 11725902_s_at; LIST D

Nc1ccc(-c2cccs2)cc1NC(=O)c1ccc2c(c1)cc(C1CC1)n2CCN1CCOCC1 [ACY-1035]
RFU, TMEM135: 107.94 RFU
